Several values for one entry are separate records, joined by “and”; a condition that tells them apart may be missing. Equal values may be shown once. Inconclusive results and toxic doses are left out. Rule as the data show it: active = T/C of 150% or more; inactive = T/C below 125%.
System: L1210 leukemia ip in BDF1 mice, survival T/C
Assay: NCI In Vivo Anticancer Drug Screen. Data for tumor model L1210 Leukemia (intraperitoneal) in B6D2F1 (BDF1) mice
Conditions: endpoint: mean survival time, higher = longer survival
How it was run: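 Survival endpoint. Drug-treated group vs vehicle group, expressed as T divided by C. Tumor passaged by transplantation.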

[1] = dose: 100.0 mg/kg/injection, schedule: Q01DX009 (ip), vehicle: Klucel (hydroxypropylcellulose) (HPC)
[2] = dose: 100.0 mg/kg/injection, schedule: Q04DX003 (ip), vehicle: Klucel (hydroxypropylcellulose) (HPC)
[3] = dose: 200.0 mg/kg/injection, schedule: Q01DX009 (ip), vehicle: Klucel (hydroxypropylcellulose) (HPC)
[4] = dose: 200.0 mg/kg/injection, schedule: Q04DX003 (ip), vehicle: Klucel (hydroxypropylcellulose) (HPC)
[5] = dose: 400.0 mg/kg/injection, schedule: Q01DX009 (ip), vehicle: Klucel (hydroxypropylcellulose) (HPC)
[6] = dose: 400.0 mg/kg/injection, schedule: Q04DX003 (ip), vehicle: Klucel (hydroxypropylcellulose) (HPC)
[7] = dose: 100.0 mg/kg/injection, schedule: Q04DX003 (ip), vehicle: saline with Tween-80
[8] = dose: 200.0 mg/kg/injection, schedule: Q04DX003 (ip), vehicle: saline with Tween-80
[9] = dose: 400.0 mg/kg/injection, schedule: Q04DX003 (ip), vehicle: saline with Tween-80
[10] = dose: 100.0 mg/kg/injection, schedule: Q01DX009 (ip), vehicle: saline
[11] = dose: 200.0 mg/kg/injection, schedule: Q01DX009 (ip), vehicle: saline
[12] = dose: 400.0 mg/kg/injection, schedule: Q01DX009 (ip), vehicle: saline
[13] = dose: 50.0 mg/kg/injection, schedule: Q01DX009 (ip), vehicle: saline with Tween-80
[14] = dose: 100.0 mg/kg/injection, schedule: Q01DX009 (ip), vehicle: saline with Tween-80
[15] = dose: 400.0 mg/kg/injection, schedule: Q01DX009 (ip), vehicle: saline with Tween-80
[16] = dose: 100.0 mg/kg/injection, schedule: Q01DX001 (ip), vehicle: saline with Tween-80
[17] = dose: 200.0 mg/kg/injection, schedule: Q01DX001 (ip), vehicle: saline with Tween-80
[18] = dose: 200.0 mg/kg/injection, schedule: Q01DX009 (ip), vehicle: saline with Tween-80
[19] = dose: 100.0 mg/kg/injection, schedule: Q01DX001 (ip), vehicle: saline
[20] = dose: 200.0 mg/kg/injection, schedule: Q01DX001 (ip), vehicle: saline
[21] = dose: 400.0 mg/kg/injection, schedule: Q01DX001 (ip), vehicle: saline
[22] = dose: 50.0 mg/kg/injection, schedule: Q01DX001 (ip), vehicle: carboxymethylcellulose (CMC)
[23] = dose: 100.0 mg/kg/injection, schedule: Q01DX001 (ip), vehicle: carboxymethylcellulose (CMC)
[24] = dose: 200.0 mg/kg/injection, schedule: Q01DX001 (ip), vehicle: carboxymethylcellulose (CMC)
[25] = dose: 400.0 mg/kg/injection, schedule: Q01DX001 (ip), vehicle: carboxymethylcellulose (CMC)

Measured: T/C

COc1c(C)cc(Br)c2c1C(CCN(C)S(=O)(=O)Cc1ccccc1)CCC2 (stereo not given)
inactive: [1] 95 % of control | [2] 96 % of control | [3] 89 % of control | [4] 98 % of control | [5] 93 % of control | [6] 91 % of control

COC(=O)C1c2ccccc2-c2ccc(N3C(=O)C=CC3=O)cc21 (stereo not given)
inactive: [7] 107 % of control | [8] 104 % of control | [9] 115 % of control

Cc1ccc(C(=O)O)cn1
inactive: [10] 97 % of control | dose: 100.0 mg/kg/injection, schedule: Q04DX003 (ip), vehicle: saline 97 % of control | [11] 98 % of control | dose: 200.0 mg/kg/injection, schedule: Q04DX003 (ip), vehicle: saline 113 % of control | [12] 97 % of control | dose: 400.0 mg/kg/injection, schedule: Q04DX003 (ip), vehicle: saline 105 % of control

O=C(NCCNC(c1ccccc1)C(NCCNC(=O)c1ccccc1)c1ccccc1)c1ccccc1 (stereo not given)
inactive: dose: 25.0 mg/kg/injection, schedule: Q01DX009 (ip), vehicle: saline with Tween-80 94 % of control | [13] 89 % of control | [14] 97 % of control and 89 % of control | [15] 89 % of control

CC(=O)OC(COS(=O)(=O)c1ccc(C)cc1)C1OCOC(COS(=O)(=O)c2ccc(C)cc2)C1OC(C)=O (stereo not given)
inactive: [16] 92 % of control | [17] 93 % of control | dose: 400.0 mg/kg/injection, schedule: Q01DX001 (ip), vehicle: saline with Tween-80 95 % of control

Cc1ncc(C(O)c2ccc(Cl)cc2)n1Cc1ccccc1 (stereo not given)
inactive: [2] 100 % of control | [4] 94 % of control | [6] 104 % of control

CCCCCCCCCCCCCCCCSCCCCCCCCCCCCCCCC
inactive: [14] 104 % of control | [18] 98 % of control

O=C(O)c1ccccc1C(=O)OC1CC2CCC1C2 (stereo not given)
inactive: dose: 100.0 mg/kg/injection, schedule: Q01DX001 (ip), vehicle: Klucel (hydroxypropylcellulose) (HPC) 100 % of control | dose: 200.0 mg/kg/injection, schedule: Q01DX001 (ip), vehicle: Klucel (hydroxypropylcellulose) (HPC) 94 % of control | dose: 400.0 mg/kg/injection, schedule: Q01DX001 (ip), vehicle: Klucel (hydroxypropylcellulose) (HPC) 98 % of control

COc1ccc([N+](=O)[O-])cc1NC(=O)Nc1nccs1
inactive: dose: 50.0 mg/kg/injection, schedule: Q01DX009 (ip), vehicle: Klucel (hydroxypropylcellulose) (HPC) 105 % of control | [1] 105 % of control | [3] 101 % of control

CCOC(=O)C1CC(=O)C(C(=O)OCC)CC1=O (stereo not given)
inactive: [19] 101 % of control | [20] 95 % of control | [21] 95 % of control

CNc1ncnc2c1ccn2C1OC(CO)C(O)C1O (stereo not given)
inactive: [22] 110 % of control

O=C1CCCC1CN1CCOCC1 (stereo not given)
inactive: [10] 92 % of control | [11] 96 % of control | [12] 94 % of control

O=C(Cc1ccccc1)OC1CC2CC1C1CCCC21 (stereo not given)
inactive: [22] 96 % of control | [23] 98 % of control | [24] 104 % of control | [25] 96 % of control

c1ccc(Cn2ccc3ccncc32)cc1
inactive: dose: 75.0 mg/kg/injection, schedule: Q01DX001 (ip), vehicle: other 96 % of control

CSCc1ccc(N)cc1
inactive: [1] 105 % of control | [2] 103 % of control | [3] 112 % of control | [4] 92 % of control | [5] 101 % of control | [6] 98 % of control

S=c1ncn(-c2ccccc2)[nH]1
inactive: [13] 103 % of control | [14] 95 % of control | [18] 95 % of control

CCOC(=O)NC(CCN(C)C)(c1cccc2ccccc12)C(C)C (stereo not given)
inactive: dose: 50.0 mg/kg/injection, schedule: Q04DX002 (ip), vehicle: Klucel (hydroxypropylcellulose) (HPC) 100 % of control | [1] 101 % of control | dose: 100.0 mg/kg/injection, schedule: Q04DX002 (ip), vehicle: Klucel (hydroxypropylcellulose) (HPC) 100 % of control

Nc1ccn(Cc2ccccc2)c(=O)n1
inactive: dose: 75.0 mg/kg/injection, schedule: Q01DX001 (ip), vehicle: saline with Tween-80 95 % of control | dose: 150.0 mg/kg/injection, schedule: Q01DX001 (ip), vehicle: saline with Tween-80 94 % of control | dose: 300.0 mg/kg/injection, schedule: Q01DX001 (ip), vehicle: saline with Tween-80 95 % of control

O=C(C1=CCCC1)C1=CCCC1
inactive: dose: 50.0 mg/kg/injection, schedule: Q01DX001 (ip), vehicle: saline with Tween-80 99 % of control | [16] 105 % of control | [17] 99 % of control

CC1(O)CCCCC1
inactive: [19] 102 % of control | [20] 104 % of control | [21] 96 % of control

O=S1(=O)OC(c2ccccc2)(c2ccccc2)c2ccccc21
inactive: [23] 100 % of control | [24] 100 % of control | [25] 100 % of control

Cc1n(Cc2ccccc2)c2c([n+]1C)C(=O)c1ccccc1C2=O
inactive: dose: 0.5 mg/kg/injection, schedule: Q01DX001 (ip), vehicle: saline 102 % of control | dose: 1.0 mg/kg/injection, schedule: Q01DX001 (ip), vehicle: saline 102 % of control | dose: 1.0 mg/kg/injection, schedule: Q04DX003 (ip), vehicle: Klucel (hydroxypropylcellulose) (HPC) 100 % of control | dose: 2.0 mg/kg/injection, schedule: Q01DX001 (ip), vehicle: saline 106 % of control | dose: 2.0 mg/kg/injection, schedule: Q04DX003 (ip), vehicle: Klucel (hydroxypropylcellulose) (HPC) 91 % of control | dose: 4.0 mg/kg/injection, schedule: Q01DX001 (ip), vehicle: saline 108 % of control | dose: 4.0 mg/kg/injection, schedule: Q04DX003 (ip), vehicle: Klucel (hydroxypropylcellulose) (HPC) 96 % of control | dose: 125.0 micrograms/kg/injection, schedule: Q01DX009 (ip), vehicle: Klucel (hydroxypropylcellulose) (HPC) 97 % of control | dose: 250.0 micrograms/kg/injection, schedule: Q01DX009 (ip), vehicle: Klucel (hydroxypropylcellulose) (HPC) 97 % of control | dose: 500.0 micrograms/kg/injection, schedule: Q01DX009 (ip), vehicle: Klucel (hydroxypropylcellulose) (HPC) 90 % of control | dose: 1000.0 micrograms/kg/injection, schedule: Q01DX009 (ip), vehicle: Klucel (hydroxypropylcellulose) (HPC) 101 % of control | dose: 2000.0 micrograms/kg/injection, schedule: Q01DX009 (ip), vehicle: Klucel (hydroxypropylcellulose) (HPC) 95 % of control

CCP(=S)(CC)CCCCP(=S)(CC)CC
inactive: [14] 94 % of control | [18] 89 % of control | [15] 86 % of control

ICc1cc(CI)c(CI)cc1CI
inactive: [7] 92 % of control | [8] 91 % of control | [9] 91 % of control

Cc1ccc(S(=O)(=O)Nc2ccccc2-c2nc3ccc(C)cc3c(=O)o2)cc1
inactive: [7] 88 % of control | [8] 94 % of control | [9] 116 % of control

Source: PubChem BioAssay AID248 (DTP/NCI, 2004)
